Measurements: patent US5968946A, “Heterocyclic derivatives useful in treating central nervous system disorders” (Ortho-McNeil Pharmaceutical, Inc., priority 1998, dated 1999)
pIC50: −log10 of the molar value. Read-outs that look alike come from different tables or passages of the source.

Tests used:
[1] = biological target: benzodiazepine site of the GABA-A receptor; experiment: Benzodiazepine receptor binding assay (inhibition of 3H-flunitrazepam binding); conditions: read-out: 3H-Flunitrazepam IC50; ca. 3 nM 3H-flunitrazepam, 10-20 min at 25° C.
[2] = system: anxiety in the adult male rat; experiment: Suppression of anxiety in the adult male rat (Vogel anticonflict test); assay type: in vivo; conditions: read-out: Anticonflict MED
Procedure: The anxiolytic activity of selected compounds of the invention was assessed by determining their ability to encourage behavior that had been suppressed by punishment (Vogel, J. R. et al. Psychopharmacology 1971, 21, 1). Male rats were deprived of water for 48 hours and were deprived of food for 24 hours prior to testing. After the first 24 hours of water deprivation, they were placed in the conflict chamber for a training period; wherein, they were allowed 200 unpunished licks from a bottle containing tap water. The experiment was run the next day. At the expected time of peak activity, the animals were placed in the chamber and allowed access to tap water. […] Their first lick initiates a 3-min test session. Subsequently,every 20th lick was punished by a 0.2-s shock delivered via the stainless-steel drinking-tube. Vehicle-treated control animals generally were willing to accept a median number of 3 to 8 shocks per test session. […] The Wilcoxon rank-sum test (Mann-WhitneyU-test) was used to test for an increase (p<0.05, 1-tailed) in the median number of shocks in drug-treated groups, compared to a concurrently run vehicle-treated group. The biological assay is considered to be valid if the effects of a known anxiolytic (positive control) are detected, within the same experiment. A compound was considered active if there is a significant difference in the median number of shocks tolerated between the drug-treated group and the control group. The MED was defined as the minimum dose of the drug-treatment as analyzed using the Wilcoxon rank-sum test (SAS; Statistical Analysis System, version 5.16). If the MED value is greater than 10, an active dose of the compound being tested had not been determined.

motor coordination = experiment: Horizontal screen test for motor coordination; assay type: in vivo, mouse (male CD1); conditions: Mus musculus, CD1 mice
[3] = system: metrazol-induced convulsions; experiment: Suppression of metrazol-induced convulsions (antimetrazol); assay type: in vivo, mouse (male CD1); conditions: Mus musculus, 0.5 h; IP; clonic convulsions, 30 min observation
Procedure: Selected compounds of the invention were tested for their ability to reduce metrazol-induced convulsions in mice (Swinyard, E. A. J. Am. Pharm Assoc. 1949, 38, 201). Male CD1 mice, were fasted at least 16 hours, were divided into equal groups and test compounds or vehicle were administered parenterally. Water was not withheld except during the period of observations. At the time of suspected peak activity, anti-pentylenetetrazol (anti-metrazol) activity was evaluated by the subcutaneous administration of the CD90 dose of metrazol (the dose of metrazol was determined from the dose-response curve producing clonic convulsions in 90% of animals that received the corresponding vehicle for this experiment). Metrazol was dissolved in 0.9% sodium chloride solution, and its dose volume was 10 ml/kg. Animals were housed individually for observation of clonic convulsions, tonic convulsions and death for a period of 30 min. Test compounds that blocked the clonic seizure component of the convulsion in at least 50% of the animals were considered active. The biological assay was considered to be valid if the effects of a known anticonvulsant (positive control) were detected, within the same experiment. Activity was reported as percent reduction of clonic convulsions from the vehicle group. The ED50 values of active compounds were calculated by the method of probits (Finney, D. J. 1971. Probit Analysis. London: Cambridge University Press) and are listed in Tables 1.

[4] = system: metrazol-induced convulsions; experiment: as above; assay type: in vivo, mouse (male CD1); conditions: Mus musculus, 0.5 h; PO; clonic convulsions, 30 min observation

Structure (SMILES) | pIC50 [1] | minimal effective dose ([2]; IP) [mg/kg] | minimal effective dose ([2]; PO) [mg/kg] | ED50 (motor coordination; IP) [mg/kg] | ED50 [3] [mg/kg] | ED50 [4] [mg/kg] | ED50 (motor coordination; PO) [mg/kg]
O=C1CCn2c(nc3cccnc32)C1C(=O)Nc1ccccc1 (stereo not shown) [CP #2, 8,9-Dihydro-7-keto-N-phenyldipyrido [1,2-a:3',2'-d] imidazole-6-carboxamide] | < 5.36 | > 10 | > 30 | > 10 | > 10 | > 30 | 
O=C1CCN2C(=C1C(=O)Nc1c(F)cc(F)cc1F)Nc1cccnc12 [CP #4] | 5.71 | > 10 | > 30 | ~10 | ~10 | > 30 | 
O=C1CCn2c(nc3ncccc32)C1C(=O)Nc1ccccc1F (stereo not shown) [CP #5, 6,7-dihydro-8-keto-N-(2-fluorophenyl)dipyrido[1,2-a:2',3'-d]imidazole-9-carboxamide] | 8.46 | 10 | > 30 | 3 | 1 | 10 | 
O=C1CCn2c(nc3ncccc32)C1C(=O)Nc1ccccc1 (stereo not shown) [CP #6, 6,7-dihydro-8-keto-N-phenyldipyrido[1,2-a:2',3'-d]imidazole-9-carboxamide] | 8.08 | > 10 | 30 | 3 | 3 | < 30 | 
O=C1CCn2c(nc3ncccc32)C1C(=O)Nc1ccncc1 (stereo not shown) [CP #7, 6,7-dihydro-8-keto-N-(4-pyridyl)dipyrido[1,2-a:2',3'-d]imidazole-9-carboxamide] | 6.21 | 30 | 10 |  | > 30 | > 10 | > 10
O=C1CCn2c(nc3ncccc32)C1C(=O)Nc1c(F)cc(F)cc1F (stereo not shown) [CP #8, 6,7-dihydro-8-keto-N-(2,4,6-trifluorophenyl)dipyrido[1,2-a:2',3'-d]imidazole-9-carboxamide] | 6.66 | > 10 | > 30 | > 30 | 10 | > 30 | 
O=C1CCn2c(nc3ncccc32)C1C(=O)Nc1c(F)cccc1F (stereo not shown) [CP #9, 6,7-dihydro-8-keto-N-(2,6-difluorophenyl)dipyrido[1,2-a:2',3'-d]imidazole-9-carboxamide] | 7.52 | > 10 | > 10 | ~10 | ~30 | ~30 | 
O=C1CCN2C(=C1C(=O)Nc1ccccc1F)Nc1cccnc12 [compound 1] |  | > 10 | > 30 | 10 | 10 | > 30 | 
O=C1CCN2C(=C1C(=O)Nc1ccncc1)Nc1cccnc12 [compound 3] |  | > 10 | > 30 | > 10 | > 10 | > 30 | 
O=C1CCN2C(=C1C(=O)Nc1c(F)cccc1F)Nc1cnccc12 [compound 10] | 7.75 | > 10 | ~3 |  | > 10 | > 30 | 
COCCN1C2=C(C(=O)Nc3ccccc3F)C(=O)CCN2c2ncccc21 [compound 11] | 6.55 |  | > 10 |  |  |  | 
CN1C2=C(C(=O)Nc3ccccc3F)C(=O)CCN2c2ncccc21 [compound 12] | < 6.51 |  | > 10 |  |  |  | 
